In this experiment the target is BRD4-2 (Homo sapiens (Human), UniProt O60885). Briefly: Bromodomain and Extraterminal Domain (BET) Binding Assay. The following applies: Table 3; read-out: BRD4-2 IC50. On the procedure: The bromodomain binding assays were performed by Reaction Biology Corp., Malvern, Pa., USA (www.reactionbiology.com). The BET binding assays were conducted in 384 well microplates in assay buffer (50 mM HEPES-HCl, pH 7.5, 100 mM NaCl, 1 mg/ml BSA, 0.05% CHAPS, and 0.5% DMSO) with compounds added as DMSO stocks at a single concentration or with 10-point dose response titrations. BET protein or assay buffer were delivered to the appropriate wells of the microplate. Test compound was then delivered by acoustic technology via a Labcyte Echo550 liquid handler. The microplate was centrifuged for 5 min and pre-incubated for 30 min at RT with gentle shaking. The ligand (histone H4 peptide (1-21) K5/8/12/16Ac-biotin) was delivered and the microplate was again centrifuged for 5 min and allowed to incubate for 30 min at RT with gentle shaking. Donor beads were then added in the absence of light and the microplate was centrifuged and gently shaken. After 5 min, acceptor beads were added in the absence of light and the microplate was centrifuged and gently shakenin the dark for 60 min. The microplate was read using a Perkin Elmer EnSpire Alpha plate reader (λEx/λEm=680/520-620 nm). Percent inhibition was calculated relative to positive and negative controls on a per plate basis. For titration experiments, IC50 values were determined by fitting the percent inhibition versus compound concentration.

pIC50: −log10 of the molar value. Where only a bound is given, the exact number is not on record here.

One may read the pIC50 as the IC50 on a negative log10 scale, so that one unit is a factor of ten. On to `C=CS(=O)(=O)Nc1ccc(Oc2ccc(C)cc2)c(-c2cc(NC)c(=O)n(C)c2)c1` [Compound 4, N-(3-(1-methyl-5-(methylamino)-6-oxo-1,6-dihydropyridin-3-yl)-4-(p-tolyloxy)phenyl)ethenesulfonamide], for which the pIC50 is 7.66.

For the molecule `C=CC(=O)Nc1ccc(Oc2ccc(OC)cc2)c(-c2cc(NC)c(=O)n(C)c2)c1` [Compound 5, N-(4-(4-methoxyphenoxy)-3-(1-methyl-5-(methylamino)-6-oxo-1,6-dihydropyridin-3-yl)phenyl)acrylamide], the pIC50 is 6.85.

Turning to `C=CC(=O)Nc1ccc(Oc2ccc(C)cc2)c(-c2cc(NC)c(=O)n(C)c2)c1` [Compound 6, N-(3-(1-methyl-5-(methylamino)-6-oxo-1,6-dihydropyridin-3-yl)-4-(p-tolyloxy)phenyl)acrylamide], the pIC50 is 6.92.

In the case of `C=CS(=O)(=O)Nc1ccc(Oc2ccc(F)cc2)c(-c2cc(NC)c(=O)n(C)c2)c1` [Compound 7, N-(4-(4-fluorophenoxy)-3-(1-methyl-5-(methylamino)-6-oxo-1,6-dihydropyridin-3-yl)phenyl)ethenesulfonamide], the pIC50 was 7.62.

As for `C=CS(=O)(=O)Nc1ccc(Oc2ccc(OC)cc2)c(-c2cc(NC)c(=O)n(C)c2)c1` [Compound 8, N-(4-(4-methoxyphenoxy)-3-(1-methyl-5-(methylamino)-6-oxo-1,6-dihydropyridin-3-yl)phenyl)ethenesulfonamide], the pIC50 was 7.77.

For `C=CC(=O)Nc1ccc(Oc2ccc(F)cc2F)c(-c2cn(C)c(=O)c3ccccc23)c1` [Compound 9, N-(4-(2,4-difluorophenoxy)-3-(2-methyl-1-oxo-1,2-dihydroisoquinolin-4-yl)phenyl)acrylamide], the negative logarithm of the IC50 (pIC50) is 6.50.

Turning to `C=CS(=O)(=O)Nc1ccc(Oc2ccc(F)cc2F)c(-c2cn(C)c(=O)c3ccccc23)c1` [Compound 10, N-(4-(2,4-difluorophenoxy)-3-(2-methyl-1-oxo-1,2-dihydroisoquinolin-4-yl)phenyl)ethenesulfonamide], the negative logarithm of the IC50 (pIC50) is 7.25.

Consider `C=CS(=O)(=O)Nc1ccc(Oc2ccc(F)cc2)c(-c2cn(C)c(=O)c3ccccc23)c1` [Compound 11, N-(4-(4-fluorophenoxy)-3-(2-methyl-1-oxo-1,2-dihydroisoquinolin-4-yl)phenyl)ethenesulfonamide], for which the pIC50 was 7.85.

`C=CS(=O)(=O)Nc1ccc(Oc2ccc(C)cc2)c(-c2cn(C)c(=O)c3ccccc23)c1` [Compound 13, N-(3-(2-methyl-1-oxo-1,2-dihydroisoquinolin-4-yl)-4-(p-tolyloxy)phenyl)ethenesulfonamide]: the negative logarithm of the IC50 (pIC50) was 7.62.

Regarding `C=CS(=O)(=O)Nc1ccc(Oc2ccc(F)cc2F)c(-c2cn(C)c(=O)c3c2CCNC3)c1` [Compound 14, N-(4-(2,4-difluorophenoxy)-3-(2-methyl-1-oxo-1,2,5,6,7,8-hexahydro-2,7-naphthyridin-4-yl)phenyl)ethenesulfonamide], the pIC50 was less than 5.00.

As for `C=CS(=O)(=O)N(C)c1ccc(Oc2ccc(F)cc2F)c(-c2cc(NC)c(=O)n(C)c2)c1` [Compound 15, N-(4-(2,4-difluorophenoxy)-3-(1-methyl-5-(methylamino)-6-oxo-1,6-dihydropyridin-3-yl)phenyl)-N-methylethenesulfonamide], the pIC50 was 7.47.

For `C=CS(=O)(=O)Nc1ccc(Oc2ccc(F)cc2F)c(-c2c[nH]c(=O)c3ccccc23)c1` [Compound 18, N-(4-(2,4-difluorophenoxy)-3-(1-oxo-1,2-dihydroisoquinolin-4-yl)phenyl)ethenesulfonamide], the pIC50 was less than 5.00.

As to `C=CS(=O)(=O)Nc1ccc(Oc2ccc(F)cc2F)c(-c2cnc(=O)n(C)c2)c1` [Compound 19, N-(4-(2,4-difluorophenoxy)-3-(1-methyl-2-oxo-1,2-dihydropyrimidin-5-yl)phenyl)ethenesulfonamide], the negative logarithm of the IC50 (pIC50) was 5.84.

For `C=CS(=O)(=O)Nc1ccc(OC)c(-c2cc(NC)c(=O)n(C)c2)c1` [Compound 20, N-(4-methoxy-3-(1-methyl-5-(methylamino)-6-oxo-1,6-dihydropyridin-3-yl)phenyl)ethenesulfonamide], the pIC50 is 5.41.

Take `C=CS(=O)(=O)Nc1ccc(Nc2ccc(F)cc2F)c(-c2cc(NC)c(=O)n(C)c2)c1` [Compound 21, N-(4-(2,4-difluorophenylamino)-3-(1-methyl-5-(methylamino)-6-oxo-1,6-dihydropyridin-3-yl)phenyl)ethenesulfonamide]: the pIC50 is 7.96.

`C=CS(=O)(=O)Nc1ccc(Oc2ccc(F)cc2F)c(-c2c[nH]c(=O)c(NC)c2)c1` [Compound 22, N-(4-(2,4-difluorophenoxy)-3-(5-(methylamino)-6-oxo-1,6-dihydropyridin-3-yl)phenyl)ethenesulfonamide]: the pIC50 was 5.41.

`C=CC(=O)Nc1cccc(Oc2ccc(F)cc2)c1-c1cc(NC)c(=O)n(C)c1` [Compound 23, N-(3-(4-fluorophenoxy)-2-(1-methyl-5-(methylamino)-6-oxo-1,6-dihydropyridin-3-yl)phenyl)acrylamide]: the pIC50 was less than 5.00.

As for `C=CC(=O)Nc1ccc(OC(C)C)c(-c2cc(NC)c(=O)n(C)c2)c1` [Compound 24, N-(4-isopropoxy-3-(1-methyl-5-(methylamino)-6-oxo-1,6-dihydropyridin-3-yl)phenyl)acrylamide], the pIC50 was 6.11.

Turning to `C=CC(=O)Nc1ccc(Oc2ccc(C)cc2)c(-c2cn(C)c(=O)c3ccccc23)c1` [Compound 25, N-(3-(2-methyl-1-oxo-1,2-dihydroisoquinolin-4-yl)-4-(p-tolyloxy)phenyl)acrylamide], the negative-log IC50 (pIC50) was 6.58.

Consider `C=CC(=O)Nc1ccc(Oc2ccc(F)cc2)c(-c2cn(C)c(=O)c3ccccc23)c1` [Compound 26, N-(4-(4-fluorophenoxy)-3-(2-methyl-1-oxo-1,2-dihydroisoquinolin-4-yl)phenyl)acrylamide], for which the pIC50 was 6.55.

On to `C=CC(=O)Nc1ccc(OC(F)(F)F)c(-c2cn(C)c(=O)c3ccccc23)c1` [Compound 27, N-(3-(2-methyl-1-oxo-1,2-dihydroisoquinolin-4-yl)-4-(trifluoromethoxy)phenyl)acrylamide], for which the pIC50 was 5.49.

Consider `C=CC(=O)Nc1ccc(Oc2ccc(F)cc2)c(-c2cn(C(C)C)c(=O)c3ccccc23)c1` [Compound 28, N-(4-(4-fluorophenoxy)-3-(2-isopropyl-1-oxo-1,2-dihydroisoquinolin-4-yl)phenyl)acrylamide], for which the pIC50 is 4.75.

As to `C=CC(=O)Nc1ccc(Oc2ccc(Cl)cc2)c(-c2cn(C)c(=O)c3ccccc23)c1` [Compound 31, N-(4-(4-chlorophenoxy)-3-(2-methyl-1-oxo-1,2-dihydroisoquinolin-4-yl)phenyl)acrylamide], the pIC50 is 6.38.

Regarding `C=CC(=O)Nc1ccc(Oc2ccc(Cl)c(F)c2)c(-c2cn(C)c(=O)c3ccccc23)c1` [Compound 32, N-(4-(4-chloro-3-fluorophenoxy)-3-(2-methyl-1-oxo-1,2-dihydroisoquinolin-4-yl)phenyl)acrylamide], the pIC50 was 6.14.

For the molecule `C#CC(=O)Nc1ccc(Oc2ccc(F)cc2F)c(-c2cn(C)c(=O)c3ccccc23)c1` [Compound 74, N-(4-(2,4-difluorophenoxy)-3-(2-methyl-1-oxo-1,2-dihydroisoquinolin-4-yl)phenyl)propiolamide], the pIC50 is 6.62.

With `C=CC(=O)Nc1ccc(Nc2ccc(F)cc2F)c(-c2cc(NC)c(=O)n(C)c2)c1` [Compound 288, N-(4-(2,4-difluorophenylamino)-3-(1-methyl-5-(methylamino)-6-oxo-1,6-dihydropyridin-3-yl)phenyl)acrylamide], the pIC50 was 6.05.

For `C=CC(=O)Nc1ccc(Nc2ccc(C)cc2)c(-c2cn(C)c(=O)c3ccccc23)c1` [Compound 309, N-(3-(2-methyl-1-oxo-1,2-dihydroisoquinolin-4-yl)-4-(p-tolylamino)phenyl) acrylamide], the negative logarithm of the IC50 (pIC50) was 5.67.

Consider `C=CC(=O)Nc1ccc(Nc2c(F)cccc2F)c(-c2cn(C)c(=O)c3ccccc23)c1` [Compound 319, N-(4-(2,6-difluorophenylamino)-3-(2-methyl-1-oxo-1,2-dihydroisoquinolin-4-yl)phenyl)acrylamide], for which the pIC50 is 5.74.

With `CC#CC(=O)Nc1ccc(Oc2ccc(F)cc2F)c(-c2cn(C)c(=O)c3ccccc23)c1` [Compound 393, N-(4-(2,4-difluorophenoxy)-3-(2-methyl-1-oxo-1,2-dihydroisoquinolin-4-yl)phenyl)but-2-ynamide], the pIC50 was 6.58.

Take `C=CC(=O)N(C)c1ccc(Oc2ccc(F)cc2F)c(-c2cc(NC)c(=O)n(C)c2)c1` [Compound 394, N-(4-(2,4-difluorophenoxy)-3-(1-methyl-5-(methylamino)-6-oxo-1,6-dihydropyridin-3-yl)phenyl)-N-methylacrylamide]: the pIC50 was 6.87.

With `C=CC(=O)N(C)c1ccc(Oc2ccc(F)cc2F)c(-c2cn(C)c(=O)c3ccccc23)c1` [Compound 396, N-(4-(2,4-difluorophenoxy)-3-(2-methyl-1-oxo-1,2-dihydroisoquinolin-4-yl)phenyl)-N-methylacrylamide], the pIC50 was 6.53.

Consider `C=CC(=O)Nc1ccc(Oc2ccc(F)cc2F)c(-c2nn(C)c(=O)cc2OC)c1` [Compound 403, N-(4-(2,4-difluorophenoxy)-3-(4-methoxy-1-methyl-6-oxo-1,6-dihydropyridazin-3-yl)phenyl)acrylamide], for which the pIC50 is 6.69.
